One assay has as its target T1, erbB2 tyrosine kinase (Homo sapiens, UniProt P04626).
T1 construct: Recombinant intracellular fragments of EGFR, erbB2 and erbB4; made in house; host or cells: baculovirus/Sf21 insect cells (cleared lysate used)
Briefly: Test (a) protein tyrosine kinase phosphorylation assay, erbB2. The class given is biochemical. Particulars: recombinant intracellular fragment; ATP at Km concentration; read-out: IC50 (nM) Test (a): Inhibition of erbB2 tyrosine kinase protein phosphorylation. How it is done: (§1) a) Protein Tyrosine Kinase Phosphorylation Assays
(§2) Recombinant intracellular fragments of EGFR, erbB2 and erbB4 (accession numbers X00588, X03363 and L07868 respectively) were cloned and expressed in the baculovirus/Sf21 system. Lysates were prepared from these cells by treatment with ice-cold lysis buffer (20 mM N-2-hydroxyethylpiperizine-N′-2-ethanesulfonic acid (HEPES) pH7.5, 150 mM NaCl, 10% glycerol, 1% Triton X-100, 1.5 mM MgCl2, 1 mM ethylene glycol-bis(β-aminoethyl ether) N′,N′,N′,N′-tetraacetic acid (EGTA), plus protease inhibitors and then cleared by centrifugation.
(§3) Constitutive kinase activity of the recombinant protein was determined by its ability to phosphorylate a synthetic peptide (made up of a random co-polymer of Glutamic Acid, Alanine and Tyrosine in the ratio of 6:3:1). Specifically, Maxisorb™ 96-well immunoplates were coated with synthetic peptide ([…] of peptide in a 100 μl phosphate buffered saline (PBS) solution and incubated at 4° C. overnight). Plates were washed in PBS-T (phosphate buffered saline with 0.5% Tween 20) then in 50 mM HEPES pH 7.4 at room temperature to remove any excess unbound synthetic peptide. EGFR, ErbB2 or ErbB4 tyrosine kinase activity was assessed by incubation in peptide coated plates for 20 minutes at 22° C. in 100 mM HEPES pH 7.4, adenosine trisphosphate (ATP) at Km concentration for the respective enzyme, 10 mM MnCl2, 0.1 mM Na3VO4, 0.2 mM DL-dithiothreitol (DTT), 0.1% Triton X-100 with test compound in DMSO (final concentration of 2.5%). Reactions were terminated by the removal of the liquid components of the assay followed by washing of the plates with PBS-T.
(§4) The immobilised phospho-peptide product of the reaction was detected by immunological methods. Firstly, plates were incubated for 90 minutes at room temperature with anti-phosphotyrosine primary antibodies that were raised in the mouse (4G10 from Upstate Biotechnology). Following extensive washing, plates were treated with Horseradish Peroxidase ([…]) conjugated sheep anti-mouse secondary antibody (NXA931 from Amersham) for 60 minutes at room temperature. After further washing, HRP activity in each well of the plate was measured […] using 22′-Azino-di-[3-ethylbenzthiazoline sulfonate (6)] diammonium salt crystals (ABTS™ from Roche) as a substrate.
(§5) Quantification of colour development and thus enzyme activity was achieved by the measurement of absorbance at 405 nm on a Molecular Devices ThermoMax microplate reader. Kinase inhibition for a given compound was expressed as an IC50 value. This was determined by calculation of the concentration of compound that was required to give 50% inhibition of phosphorylation in this assay. The range of phosphorylation was calculated from the positive (vehicle plus ATP) and negative (vehicle minus ATP) control values.

Another assay addresses T2, EGFR tyrosine kinase (Homo sapiens, UniProt P00533).
T2 construct: Recombinant intracellular fragments of EGFR, erbB2 and erbB4; made in house; host or cells: baculovirus/Sf21 insect cells (cleared lysate used)
Briefly: Test (a) protein tyrosine kinase phosphorylation assay, EGFR. In kind it is biochemical. Conditions: recombinant intracellular fragment; ATP at Km concentration; read-out: IC50 (nM) Test (a): Inhibition of EGFR tyrosine kinase protein phosphorylation. The procedure: as §1
This test measures the ability of a test compound to inhibit the phosphorylation of a tyrosine containing polypeptide substrate by EGFR tyrosine kinase enzyme.
as §2, §3, §4, §5

Assay [1] concerns KB cells (human naso-pharangeal carcinoma). Description: Test (b) KB cell proliferation assay. The class given is cell-based. Conditions: 96 h, EGF 1 ng/ml, 4 days, MTT, read-out: IC50 (nM) Test (b): EGFR driven KB cell proliferation assay. How it is done:
b) KB Cell Proliferation Assay
This assay measures the ability of a test compound to inhibit the EGF driven proliferation of KB cells (human naso-pharangeal carcinoma obtained from the American Type Culture Collection (ATCC)).
KB cells were cultured in Dulbecco's modified Eagle's medium (DMEM) containing 10% foetal calf serum, 2 mM glutamine and non-essential amino acids at 37° C. in a 7.5% CO2 air incubator. Cells were harvested from the stock flasks using Trypsin/ethylaminediaminetetraacetic acid (EDTA). Cell density was measured using a haemocytometer and viability was calculated using trypan blue solution before being seeded at a density of 1.25×10^3 cells per well of a 96 well plate in DMEM containing 2.5% charcoal stripped serum, 2 mM glutamine and non-essential amino acids at 37° C. in 7.5% CO2 and allowed to settle for 4 hours.
Following adhesion to the plate, the cells are treated with or without EGF (final concentration of 1 ng/ml) and with or without compound at a range of concentrations in dimethylsulfoxide (DMSO) (1% final) in a final volume of 200 μl before incubation for 4 days at 37° C. in 7.5% CO2. Following the incubation period, cell numbers were determined by addition of 50 μl of 3-(4,5-Dimethylthiazol-2-yl)-2,5-diphenyltetrazolium bromide (MTT) (stock 5 mg/ml) and incubated at 37° C. in a 7.5% CO2 air incubator for 2 hours. MTT solution was then removed from the cells by aspiration, which were then allowed to air dry and were dissolved upon the addition of 100 μl of DMSO.
Absorbance of this solubilised cells was read at 540 nm to quantify cell biomass. Inhibition of proliferation was expressed as an IC50 value. This was determined by calculation of the concentration of compound that was required to give 50% inhibition of proliferation. The range of proliferation was calculated from the positive (vehicle plus EGF) and negative (vehicle minus EGF) control values.

T2 sequence (P00533 669-1210 limits assumed): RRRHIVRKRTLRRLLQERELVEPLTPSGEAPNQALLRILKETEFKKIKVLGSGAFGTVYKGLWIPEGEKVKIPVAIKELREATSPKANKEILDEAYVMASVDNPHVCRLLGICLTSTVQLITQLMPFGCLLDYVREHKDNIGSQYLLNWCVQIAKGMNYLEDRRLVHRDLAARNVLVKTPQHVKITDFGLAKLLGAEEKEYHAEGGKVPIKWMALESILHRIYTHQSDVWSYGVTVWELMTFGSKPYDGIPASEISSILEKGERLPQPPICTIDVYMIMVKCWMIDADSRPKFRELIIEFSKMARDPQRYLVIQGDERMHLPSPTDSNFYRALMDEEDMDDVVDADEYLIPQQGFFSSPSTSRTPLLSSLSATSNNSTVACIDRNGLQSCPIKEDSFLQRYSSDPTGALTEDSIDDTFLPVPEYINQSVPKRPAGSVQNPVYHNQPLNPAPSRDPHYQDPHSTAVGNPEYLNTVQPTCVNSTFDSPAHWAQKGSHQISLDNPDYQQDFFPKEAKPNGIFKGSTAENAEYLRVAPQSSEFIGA
T1 sequence (P04626 676-1255 limits assumed): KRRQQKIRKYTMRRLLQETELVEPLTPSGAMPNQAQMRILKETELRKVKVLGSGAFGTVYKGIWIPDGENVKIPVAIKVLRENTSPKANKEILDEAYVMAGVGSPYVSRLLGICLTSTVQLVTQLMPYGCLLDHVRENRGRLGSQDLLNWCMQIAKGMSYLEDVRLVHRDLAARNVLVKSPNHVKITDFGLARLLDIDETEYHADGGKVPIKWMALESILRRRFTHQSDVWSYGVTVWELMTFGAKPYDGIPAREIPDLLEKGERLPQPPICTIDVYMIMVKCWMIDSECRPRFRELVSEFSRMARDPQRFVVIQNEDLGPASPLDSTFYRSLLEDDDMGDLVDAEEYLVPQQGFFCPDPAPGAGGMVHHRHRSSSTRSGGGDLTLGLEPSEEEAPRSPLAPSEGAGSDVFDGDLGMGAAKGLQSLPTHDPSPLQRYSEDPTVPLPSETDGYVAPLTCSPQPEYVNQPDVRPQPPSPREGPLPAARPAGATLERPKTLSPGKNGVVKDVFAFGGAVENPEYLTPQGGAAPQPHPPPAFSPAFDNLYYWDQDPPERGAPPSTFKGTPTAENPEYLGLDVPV

For `COc1cc(OC[C@H]2CCCN2C(=O)CN(C)C)c2c(Nc3ccc(F)c(Cl)c3)ncnc2c1` [Example 4], the IC50 at erbB2 tyrosine kinase came to 252 nM; on EGFR tyrosine kinase, 39 nM; in assay [1] it was 138 nM.

As to `COc1cc(OC[C@@H]2C[C@@H](O)CN2C(=O)CO)c2c(Nc3ccc(F)c(Cl)c3)ncnc2c1` [Example 25, (3R,5S)-5-[({4-[3-Chloro-4-fluoroanilino]-7-methoxyquinazolin-5-yl}oxy)methyl]1-glycoloylpyrrolidin-3-ol], the figures for the IC50 (on erbB2 tyrosine kinase; on EGFR tyrosine kinase; in assay [1]) were 1910 nM, 32 nM and 156 nM, respectively.

For `COc1cc(OC[C@H]2C[C@@H](O)CN2C(=O)CO)c2c(Nc3ccc(F)c(Cl)c3)ncnc2c1` [Example 32, (3R,5R)-5-[({4-[3-Chloro-4-fluoroanilino]-7-methoxyquinazolin-5-yl}oxy)methyl]-1-glycoloylpyrrolidin-3-ol], the IC50 came to 215 nM at erbB2 tyrosine kinase, 18 nM at EGFR tyrosine kinase and 118 nM in assay [1].

Turning to `COc1cc(OC[C@@H]2C[C@H](O)CN2C(=O)CN(C)C)c2c(Nc3ccc(F)c(Cl)c3)ncnc2c1` [Example 31, (3S,5S)-5-[({4-[3-Chloro-4-fluoroanilino]-7-methoxyquinazolin-5-yl}oxy)methyl]-1-(N,N-dimethylglycyl)pyrrolidin-3-ol], the IC50 at erbB2 tyrosine kinase came out at 532 nM; at EGFR tyrosine kinase, 42 nM; in assay [1], 112 nM.

`COc1cc(OC[C@H]2C[C@H](O)CN2C(C)=O)c2c(Nc3ccc(F)c(Cl)c3)ncnc2c1` [Example 22, (3S,5R)-1-Acetyl-5-[({4-[3-chloro-4-fluoroanilino]-7-methoxyquinazolin-5-yl}oxy)methyl]pyrrolidin-3-ol]: the IC50 at erbB2 tyrosine kinase was found to be 61 nM; on EGFR tyrosine kinase, 1 nM; in assay [1] it was 75 nM.

On to `CCOCCOc1cc(OC[C@H]2CCCN2C(=O)CO)c2c(Nc3ccc(F)c(Cl)c3)ncnc2c1` [Example 18, 2-[(2R)-2-({[4-[3-Chloro-4-fluoroanilino]-7-(2-ethoxyethoxy)quinazolin-5-yl]oxy}methyl)pyrrolidin-1-yl]-2-oxoethanol], for which the IC50 at erbB2 tyrosine kinase is 85 nM; on EGFR tyrosine kinase it was 8 nM; in assay [1] it was 99 nM.

`COc1cc(OC[C@@H]2CCCN2C(=O)CN2CCCC2)c2c(Nc3ccc(F)c(Cl)c3)ncnc2c1` [Example 6, N-(3-Chloro-4-fluorophenyl)-7-methoxy-5-{[(2S)-1-(pyrrolidin-1-ylacetyl)pyrrolidin-2-yl]methoxy}quinazolin-4-amine]: the figures for the IC50 (on erbB2 tyrosine kinase; on EGFR tyrosine kinase; in assay [1]) were 1630 nM, 57 nM and 130 nM, respectively.

For `COCC(=O)N1C[C@@H](O)C[C@@H]1COc1cc(OC)cc2ncnc(Nc3ccc(F)c(Cl)c3)c12` [Example 23, (3S,5R)-5-[({4-[3-Chloro-4-fluoroanilino]-7-methoxyquinazolin-5-yl}oxy)methyl]-1-(methoxyacetyl)pyrrolidin-3-ol], the IC50 at erbB2 tyrosine kinase was determined as 1730 nM; on EGFR tyrosine kinase, 56 nM; in assay [1] it was 288 nM.

Regarding `O=C(CO)N1CCC[C@@H]1COc1cc(OCCO)cc2ncnc(Nc3ccc(F)c(Cl)c3)c12` [Example 16, 2-[(2R)-2-({[4-[3-Chloro-4-fluoroanilino]-7-(2-hydroxyethoxy)quinazolin-5-yl]oxy}methyl)pyrrolidin-1-yl]-2-oxoethanol], the figures for the IC50 (on erbB2 tyrosine kinase; on EGFR tyrosine kinase; in assay [1]) were 52 nM, 1 nM and 128 nM, respectively.

As for `COc1cc(OC[C@H]2CCCN2C(C)=O)c2c(Nc3ccc(F)c(Cl)c3)ncnc2c1` [Example 13, 5-{[(2R)-1-Acetylpyrrolidin-2-yl]methoxy}-N-(3-chloro-4-fluorophenyl)-7-methoxyquinazolin-4-amine], the IC50 on erbB2 tyrosine kinase was determined as 358 nM; at EGFR tyrosine kinase it was 1 nM; in assay [1], 28 nM.

Regarding `COc1cc(OC[C@@H]2CCCN2C(=O)CN(C)C)c2c(Nc3ccc(F)c(Cl)c3)ncnc2c1` [Example 2, N-(3-Chloro-4-fluorophenyl)-5-({(2S)-1-[(dimethylamino)acetyl]pyrrolidin-2-yl}methoxy)-7-methoxyquinazolin-4-amine], the figures for the IC50 (at erbB2 tyrosine kinase; at EGFR tyrosine kinase; in assay [1]) were 1850 nM, 70 nM and 141 nM, respectively.

For the compound `COc1cc(OC[C@H]2CCCN2C(=O)CO)c2c(Nc3ccc(F)c(Cl)c3)ncnc2c1` [Example 3, 2-{(2R)-2-[({4-[3-Chloro-4-fluoroanilino]-7-methoxyquinazolin-5-yl}oxy)methyl]pyrrolidin-1-yl}-2-oxoethanol], the figures for the IC50 (on erbB2 tyrosine kinase; at EGFR tyrosine kinase; in assay [1]) were 275 nM, 9 nM and 91 nM, respectively.

The record behind these values is patent US7659279B2, “Quinazoline derivatives and their use in the treatment of cancer” (AstraZeneca AB, priority 2003, dated 2010).
